Measurements reported in patent US7250413B2, “C-25 carbamate rifamycin derivatives with activity against drug-resistant microbes” (Cumbre Pharmaceuticals Inc., priority 2004, dated 2007).
≈ marks a conversion by molar mass, not a printed value.

What was measured:
Assay in all cases: MIC, microbroth dilution
Type in all cases: cell-based
[1] = test system: Enterococcus faecalis ATCC29212; conditions: rifS, BHI Broth, 37° C., read-out: MIC
Description: (§1) Representative compounds were assayed for antimicrobial activity as follows: Minimum Inhibitory Concentrations (“MICs”) were determined by the microbroth dilution method as per NCCLS guidelines (National Committee for Clinical Laboratory Standards, 2000), except that all growth incubations were conducted at 37° C. Bacterial cultures were tested in the following bacteriological media: S. aureus, S. epidermidis, and E. coli in Cation-Adjusted Mueller-Hinton Broth, S. pneumoniae in THY Broth supplemented with 1 mg/mL catalase under 5% CO2 atmosphere, S. pyogenes in THY Broth, E. faecalis in BHI Broth, H. influenzae in BHI Broth supplemented with 0.75 μL of 1 mg/mL NAD and 150 μL of 1 mg/ml hematin per 5 mL, and M smegmatis in Middlebrook Broth plus ADC Enrichment.

[2] = test system: Mycobacterium smegmatis ATCC700084; conditions: Mycolicibacterium smegmatis, ATCC700084; rifS; Middlebrook Broth plus ADC Enrichment, 37° C.; read-out: MIC
Description: as §1

[3] = test system: Staphylococcus aureus ATCC29213; conditions: rifS, Cation-Adjusted Mueller-Hinton Broth, 37° C., read-out: MIC
Description: as §1

`CNC(=O)O[C@H]1[C@H](C)[C@H](O)[C@H](C)[C@@H](O)[C@@H](C)/C=C/C=C(/C)C(=O)NC2=C(N3CCOCC3)C(=O)c3c(c(O)c(C)c4c3C(=O)[C@@](C)(O/C=C/[C@H](OC)[C@H]1C)O4)C2=O` [Example 21, 25-O-Desacetyl-(carbonyl-methylamino) 3-morpholino rifamycin S] was tested, and the MIC [1] was 0.25 to 62 µg/mL (≈ 0.314 to 77.9 µM), the MIC [2] was 0.063 to 31 µg/mL and the MIC [3] was 0.002 to 1.95 µg/mL (≈ 0.00251 to 2.45 µM).
`CO[C@H]1/C=C/O[C@@]2(C)Oc3c(C)c(O)c4c(c3C2=O)C(=O)C(N2CCOCC2)=C(NC(=O)/C(C)=C\C=C\[C@H](C)[C@H](O)[C@@H](C)[C@@H](O)[C@@H](C)[C@H](OC(=O)NCc2ccc(Cl)cc2)[C@@H]1C)C4=O` [Example 22, 25-O-Desacetyl-(carbonyl-4-chlorobenzyl) 3-morpholino rifamycin S] gave an MIC [1] of 0.25 to 62 µg/mL (≈ 0.276 to 68.4 µM), an MIC [2] of 0.063 to 31 µg/mL and an MIC [3] of 0.002 to 1.95 µg/mL (≈ 0.00221 to 2.15 µM).
With `CO[C@H]1/C=C/O[C@@]2(C)Oc3c(C)c(O)c4c(c3C2=O)C(=O)C(N2CCOCC2)=C(NC(=O)/C(C)=C\C=C\[C@H](C)[C@H](O)[C@@H](C)[C@@H](O)[C@@H](C)[C@H](OC(=O)NCCCc2ccccc2)[C@@H]1C)C4=O` [Example 24, 25-O-Desacetyl-(carbonyl-3-phenylpropylamino) 3-morpholino rifamycin S] the MIC [1] was 0.25 to 62 µg/mL (≈ 0.278 to 68.9 µM), the MIC [2] was 0.063 to 31 µg/mL and the MIC [3] was 0.002 to 1.95 µg/mL (≈ 0.00222 to 2.17 µM).
`CO[C@H]1/C=C/O[C@@]2(C)Oc3c(C)c(O)c4c(c3C2=O)C(=O)C(N2CCOCC2)=C(NC(=O)/C(C)=C\C=C\[C@H](C)[C@H](O)[C@@H](C)[C@@H](O)[C@@H](C)[C@H](OC(=O)NCCc2ccccc2)[C@@H]1C)C4=O` [Example 25, 25-O-Desacetyl-(carbonyl-3-phenylethylamino) 3-morpholino rifamycin S] was tested, and the MIC [1] was 0.25 to 62 µg/mL (≈ 0.282 to 70 µM), the MIC [2] was 0.063 to 31 µg/mL and the MIC [3] was 0.002 to 1.95 µg/mL (≈ 0.00226 to 2.2 µM).
Compound `COc1ccc(CNC(=O)O[C@H]2[C@H](C)[C@H](O)[C@H](C)[C@@H](O)[C@@H](C)/C=C/C=C(/C)C(=O)NC3=C(N4CCOCC4)C(=O)c4c(c(O)c(C)c5c4C(=O)[C@@](C)(O/C=C/[C@H](OC)[C@H]2C)O5)C3=O)cc1` [Example 26, 25-O-Desacetyl-(carbonyl-4-methoxybenzylamino) 3-morpholino rifamycin S] has an MIC [1] of 0.25 to 62 µg/mL (≈ 0.277 to 68.7 µM), an MIC [2] of 0.063 to 31 µg/mL and an MIC [3] of 0.002 to 1.95 µg/mL (≈ 0.00222 to 2.16 µM).
With `COc1c(N2CCN(C(=O)O[C@H]3[C@H](C)[C@H](O)[C@H](C)[C@@H](O)[C@@H](C)/C=C/C=C(/C)C(=O)NC4=C(N5CCOCC5)C(=O)c5c(c(O)c(C)c6c5C(=O)[C@@](C)(O/C=C/[C@H](OC)[C@H]3C)O6)C4=O)C(C)C2)c(F)cc2c(=O)c(C(=O)O)cn(C3CC3)c12` (stereo partly drawn) [Example 28, 25-O-Desacetyl-(carbonyl-1-cyclopropyl-6-fluoro-8-methoxy-7-(3-methyl-piperazin-1-yl)-4-oxo-1,4-dihydro-quinoline-3-carboxylic acid) 3-morpholino rifamycin S] the MIC [1] was 0.25 to 62 µg/mL (≈ 0.219 to 54.4 µM), the MIC [2] was 0.063 to 31 µg/mL and the MIC [3] was 0.002 to 1.95 µg/mL (≈ 0.00175 to 1.71 µM).
`CCN1CC2CN(C(=O)O[C@H]3[C@H](C)[C@H](O)[C@H](C)[C@@H](O)[C@@H](C)/C=C/C=C(/C)C(=O)NC4=C(N5CCOCC5)C(=O)c5c(c(O)c(C)c6c5C(=O)[C@@](C)(O/C=C/[C@H](OC)[C@H]3C)O6)C4=O)CC2C1` (stereo partly drawn) [Example 29, 25-O-Desacetyl-(carbonyl-2-ethyl-octahydro-pyrrolo[3,4-c]pyrrole) 3-morpholino rifamycin S] was tested, and the MIC [1] was 0.25 to 62 µg/mL (≈ 0.276 to 68.5 µM), the MIC [2] was 0.063 to 31 µg/mL and the MIC [3] was 0.002 to 1.95 µg/mL (≈ 0.00221 to 2.15 µM).
Compound `CO[C@H]1/C=C/O[C@@]2(C)Oc3c(C)c(O)c4c(c3C2=O)C(=O)C(N2CCOCC2)=C(NC(=O)/C(C)=C\C=C\[C@H](C)[C@H](O)[C@@H](C)[C@@H](O)[C@@H](C)[C@H](OC(=O)NCCN(C)C)[C@@H]1C)C4=O` [Example 30, 25-O-Desacetyl-(carbonyl-N,N-dimethylethylenediamine) 3-morpholino rifamycin S] has an MIC [1] of 0.25 to 62 µg/mL (≈ 0.293 to 72.7 µM), an MIC [2] of 0.063 to 31 µg/mL and an MIC [3] of 0.002 to 1.95 µg/mL (≈ 0.00234 to 2.29 µM).
Compound `CO[C@H]1/C=C/O[C@@]2(C)Oc3c(C)c(O)c4c(c3C2=O)C(=O)C(N2CCOCC2)=C(NC(=O)/C(C)=C\C=C\[C@H](C)[C@H](O)[C@@H](C)[C@@H](O)[C@@H](C)[C@H](OC(=O)NCCC2CCCN2C)[C@@H]1C)C4=O` (stereo partly drawn) [Example 31, 25-O-Desacetyl-(carbonyl-2-(1-methyl-pyrrolidin-2-yl)-ethylamine) 3-morpholino rifamycin S] has an MIC [1] of 0.25 to 62 µg/mL (≈ 0.28 to 69.4 µM), an MIC [2] of 0.063 to 31 µg/mL and an MIC [3] of 0.002 to 1.95 µg/mL (≈ 0.00224 to 2.18 µM).
In the case of `CO[C@H]1/C=C/O[C@@]2(C)Oc3c(C)c(O)c4c(c3C2=O)C(=O)C(N2CCOCC2)=C(NC(=O)/C(C)=C\C=C\[C@H](C)[C@H](O)[C@@H](C)[C@@H](O)[C@@H](C)[C@H](OC(=O)NCCN2CCCC2)[C@@H]1C)C4=O` [Example 32, 25-O-Desacetyl-(carbonyl-2-Pyrrolidin-1-yl-ethylamine) 3-morpholino rifamycin S], the MIC [1] is reported as 0.25 to 62 µg/mL (≈ 0.284 to 70.5 µM), the MIC [2] is reported as 0.063 to 31 µg/mL and the MIC [3] is reported as 0.002 to 1.95 µg/mL (≈ 0.00228 to 2.22 µM).
Work on `CO[C@H]1/C=C/O[C@@]2(C)Oc3c(C)c(O)c4c(c3C2=O)C(=O)C(N2CCOCC2)=C(NC(=O)/C(C)=C\C=C\[C@H](C)[C@H](O)[C@@H](C)[C@@H](O)[C@@H](C)[C@H](OC(=O)NC2CCN(Cc3ccccc3)CC2)[C@@H]1C)C4=O` [Example 33, 25-O-Desacetyl-(carbonyl-1-benzyl-piperidin-4-ylamine) 3-morpholino rifamycin S] yielded an MIC [1] of 0.25 to 62 µg/mL (≈ 0.262 to 64.9 µM), an MIC [2] of 0.063 to 31 µg/mL and an MIC [3] of 0.002 to 1.95 µg/mL (≈ 0.00209 to 2.04 µM).
For `CO[C@H]1/C=C/O[C@@]2(C)Oc3c(C)c(O)c4c(c3C2=O)C(=O)C(N2CCOCC2)=C(NC(=O)/C(C)=C\C=C\[C@H](C)[C@H](O)[C@@H](C)[C@@H](O)[C@@H](C)[C@H](OC(=O)NCCCCc2ccccc2)[C@@H]1C)C4=O` [Example 34, 25-O-Desacetyl-(carbonyl-4-phenyl-butylamine) 3-morpholino rifamycin S], the MIC [1] was 0.25 to 62 µg/mL (≈ 0.274 to 67.8 µM), the MIC [2] was 0.063 to 31 µg/mL and the MIC [3] was 0.002 to 1.95 µg/mL (≈ 0.00219 to 2.13 µM).
`CO[C@H]1/C=C/O[C@@]2(C)Oc3c(C)c(O)c4c(c3C2=O)C(=O)C(N2CCOCC2)=C(NC(=O)/C(C)=C\C=C\[C@H](C)[C@H](O)[C@@H](C)[C@@H](O)[C@@H](C)[C@H](OC(=O)N2CCC(N3CCCCC3)CC2)[C@@H]1C)C4=O` [Example 35, 25-O-Desacetyl-(carbonyl-[1,4′]bipiperidinyl) 3-morpholino rifamycin S] showed an MIC [1] of 0.25 to 62 µg/mL (≈ 0.268 to 66.4 µM), an MIC [2] of 0.063 to 31 µg/mL and an MIC [3] of 0.002 to 1.95 µg/mL (≈ 0.00214 to 2.09 µM).
Work on `CO[C@H]1/C=C/O[C@@]2(C)Oc3c(C)c(O)c4c(c3C2=O)C(=O)C(N2CCOCC2)=C(NC(=O)/C(C)=C\C=C\[C@H](C)[C@H](O)[C@@H](C)[C@@H](O)[C@@H](C)[C@H](OC(=O)NCc2ccc(N(C)C)cc2)[C@@H]1C)C4=O` [Example 36, 25-O-Desacetyl-(carbonyl-(4-aminomethyl-phenyl)-dimethyl-amine) 3-morpholino rifamycin S] yielded an MIC [1] of 0.25 to 62 µg/mL (≈ 0.273 to 67.8 µM), an MIC [2] of 0.063 to 31 µg/mL and an MIC [3] of 0.002 to 1.95 µg/mL (≈ 0.00219 to 2.13 µM).
Compound `CO[C@H]1/C=C/O[C@@]2(C)Oc3c(C)c(O)c4c(c3C2=O)C(=O)C(N2CCOCC2)=C(NC(=O)/C(C)=C\C=C\[C@H](C)[C@H](O)[C@@H](C)[C@@H](O)[C@@H](C)[C@H](OC(=O)N(CCN(C)C)Cc2ccccc2)[C@@H]1C)C4=O` [Example 37, 25-O-Desacetyl-(carbonyl-N′-benzyl-N,N-dimethyl-ethane-1,2-diamino) 3-morpholino rifamycin S] has an MIC [1] of 0.25 to 62 µg/mL (≈ 0.265 to 65.7 µM), an MIC [2] of 0.063 to 31 µg/mL and an MIC [3] of 0.002 to 1.95 µg/mL (≈ 0.00212 to 2.07 µM).
